Test results from ChEMBL document CHEMBL1154224, “Spiropiperidine CCR5 antagonists” (Bioorg Med Chem Lett, 2009).

Legend:
[1] = molecular target: Voltage-gated inwardly rectifying potassium channel KCNH2 (Homo sapiens, UniProt Q12809); test: (§1) Inhibition of human ERG
hERG (KCNH2) = hERG (KCNH2) (Homo sapiens, UniProt Q12809); test: as §1; conditions: human
[2] = Fraction unbound in dog plasma; type: ADME, cell-free, Canis lupus familiaris
[3] = molecular target: T1, C-C chemokine receptor type 3 (Homo sapiens, UniProt P51677); test: Binding affinity to human CCR3 receptor
T1 sequence (P51677 whole entry): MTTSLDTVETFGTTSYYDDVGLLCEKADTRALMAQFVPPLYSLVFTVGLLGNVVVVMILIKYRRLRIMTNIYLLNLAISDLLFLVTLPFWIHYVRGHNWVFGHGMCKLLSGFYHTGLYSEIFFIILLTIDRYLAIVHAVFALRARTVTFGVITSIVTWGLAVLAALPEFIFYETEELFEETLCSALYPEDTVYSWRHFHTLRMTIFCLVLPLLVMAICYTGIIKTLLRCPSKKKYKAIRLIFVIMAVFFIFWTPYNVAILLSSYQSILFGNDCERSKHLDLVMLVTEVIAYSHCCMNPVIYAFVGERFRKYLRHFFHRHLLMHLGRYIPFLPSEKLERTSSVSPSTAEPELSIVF

[4] = Half life in dog at 1 mg/kg, iv; type: ADME, organism-based, Canis lupus familiaris; set-up: dose 1 mg/kg, route intravenous; conditions: in vivo
Cytochrome P450 2C9 = Cytochrome P450 2C9 (Homo sapiens, UniProt P11712); test: Inhibition of liver CYP2C9; type: ADME, tissue-based
[5] = Cmax in cynomolgus monkey at 1 mg/kg, po; type: ADME, organism-based, Macaca fascicularis; set-up: dose 1 mg/kg, route oral; conditions: in vivo
[6] = molecular target: C-C chemokine receptor type 5 (Homo sapiens, UniProt P51681); test: Displacement of [125I]RANTES from human CCR5 receptor co-transfected with Galphai6 in CHO cells; type: cell-based
[7] = system: Human immunodeficiency virus 1; test: Antiviral activity against recombinant HIV1 virus infected in human JC53BL cells after 3 days; type: functional, organism-based; conditions: Human immunodeficiency virus 1, JC53BL, 72 h
[8] = molecular target: C-X-C chemokine receptor type 4 (Homo sapiens, UniProt P61073); test: Binding affinity to human CXCR4
[9] = Fraction unbound in monkey plasma; type: ADME, cell-free, Macaca mulatta; conditions: rhesus monkey
[10] = molecular target: T2, C-C chemokine receptor type 1 (Homo sapiens, UniProt P32246); test: Binding affinity to human CCR1 receptor
T2 sequence (P32246 whole entry): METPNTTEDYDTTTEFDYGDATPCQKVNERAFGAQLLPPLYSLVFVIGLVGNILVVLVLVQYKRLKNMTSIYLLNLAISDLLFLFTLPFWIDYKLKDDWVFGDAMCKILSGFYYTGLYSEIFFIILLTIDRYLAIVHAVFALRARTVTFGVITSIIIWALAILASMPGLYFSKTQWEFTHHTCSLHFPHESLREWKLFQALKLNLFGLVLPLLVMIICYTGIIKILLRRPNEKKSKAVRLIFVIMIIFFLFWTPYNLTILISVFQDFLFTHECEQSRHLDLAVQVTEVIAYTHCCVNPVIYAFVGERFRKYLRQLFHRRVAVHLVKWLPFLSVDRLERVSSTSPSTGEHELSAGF

Canis familiaris = test: Clearance in dog at 1 mg/kg, iv; type: ADME, organism-based, Canis lupus familiaris; set-up: dose 1 mg/kg, route intravenous; conditions: in vivo
[11] = Intrinsic clearance in human liver microsomes assessed per mg of protein; type: ADME, Microsome; conditions: liver microsomes
[12] = Volume of distribution at steady state in dog at 1 mg/kg, iv; type: ADME, organism-based, Canis lupus familiaris; set-up: dose 1 mg/kg, route intravenous; conditions: in vivo, read-out: Vdss
[13] = Oral bioavailability in dog at 1 mg/kg, po; type: ADME, organism-based, Canis lupus familiaris; conditions: in vivo
[14] = Volume of distribution at steady state in rat at 1 mg/kg, iv; type: ADME, organism-based; set-up: dose 1 mg/kg, route intravenous; conditions: in vivo, read-out: Vdss
[15] = Oral bioavailability in rat at 1 mg/kg, po; type: ADME, organism-based; conditions: in vivo
[16] = AUC in cynomolgus monkey at 1 mg/kg, po; type: ADME, organism-based, Macaca fascicularis; set-up: dose 1 mg/kg, route oral; conditions: plasma
[17] = AUC in dog at 1 mg/kg, po; type: ADME, organism-based, Canis lupus familiaris; set-up: dose 1 mg/kg, route oral; conditions: plasma
[18] = Cmax in dog at 1 mg/kg, po; type: ADME, organism-based, Canis lupus familiaris; set-up: dose 1 mg/kg, route oral; conditions: in vivo
[19] = Oral bioavailability in cynomolgus monkey at 1 mg/kg, po; type: ADME, organism-based, Macaca fascicularis; conditions: in vivo
[20] = Clearance in rat at 1 mg/kg, iv; type: ADME, organism-based; set-up: dose 1 mg/kg, route intravenous; conditions: in vivo
[21] = Half life in cynomolgus monkey at 1 mg/kg, iv; type: ADME, organism-based, Macaca fascicularis; set-up: dose 1 mg/kg, route intravenous; conditions: in vivo
[22] = Cmax in rat at 1 mg/kg, po; type: ADME, organism-based; set-up: dose 1 mg/kg, route oral; conditions: in vivo
[23] = Clearance in cynomolgus monkey at 1 mg/kg, iv; type: ADME, organism-based, Macaca fascicularis; set-up: dose 1 mg/kg, route intravenous; conditions: in vivo
[24] = Half life in rat at 1 mg/kg, iv; type: ADME, organism-based; set-up: dose 1 mg/kg, route intravenous; conditions: in vivo
[25] = molecular target: C-C chemokine receptor type 2 (Homo sapiens, UniProt P41597); test: Binding affinity to human CCR2b receptor
[26] = Volume of distribution at steady state in cynomolgus monkey at 1 mg/kg, iv; type: ADME, organism-based, Macaca fascicularis; set-up: dose 1 mg/kg, route intravenous; conditions: in vivo, read-out: Vdss
Cytochrome P450 1A2 = molecular target: T3, Cytochrome P450 1A2 (Homo sapiens, UniProt P05177); test: Inhibition of liver CYP1A2; type: ADME, tissue-based
T3 sequence (P05177 whole entry): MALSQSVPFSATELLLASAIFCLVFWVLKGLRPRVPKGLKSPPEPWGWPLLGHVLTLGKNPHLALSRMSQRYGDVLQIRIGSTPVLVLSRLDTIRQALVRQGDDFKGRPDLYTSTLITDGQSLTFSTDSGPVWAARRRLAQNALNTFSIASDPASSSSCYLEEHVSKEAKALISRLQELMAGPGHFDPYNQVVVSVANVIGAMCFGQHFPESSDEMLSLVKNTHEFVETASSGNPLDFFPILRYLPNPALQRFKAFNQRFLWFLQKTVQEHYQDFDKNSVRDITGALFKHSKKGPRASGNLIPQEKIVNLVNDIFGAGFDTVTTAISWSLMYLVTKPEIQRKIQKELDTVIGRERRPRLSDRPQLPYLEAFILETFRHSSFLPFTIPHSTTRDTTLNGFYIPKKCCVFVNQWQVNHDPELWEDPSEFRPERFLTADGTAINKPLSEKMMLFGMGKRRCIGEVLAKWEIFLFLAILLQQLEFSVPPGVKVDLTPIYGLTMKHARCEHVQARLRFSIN

Cytochrome P450 2C19 = Cytochrome P450 2C19 (Homo sapiens, UniProt P33261); test: Inhibition of liver CYP2C19; type: ADME, tissue-based
[27] = Fraction unbound in rat plasma; type: ADME, cell-free
[28] = AUC in rat at 1 mg/kg, po; type: ADME, organism-based; set-up: dose 1 mg/kg, route oral; conditions: plasma
[29] = molecular target: T4, C-C chemokine receptor type 6 (Homo sapiens, UniProt P51684); test: Binding affinity to human CCR6 receptor
T4 sequence (P51684 whole entry): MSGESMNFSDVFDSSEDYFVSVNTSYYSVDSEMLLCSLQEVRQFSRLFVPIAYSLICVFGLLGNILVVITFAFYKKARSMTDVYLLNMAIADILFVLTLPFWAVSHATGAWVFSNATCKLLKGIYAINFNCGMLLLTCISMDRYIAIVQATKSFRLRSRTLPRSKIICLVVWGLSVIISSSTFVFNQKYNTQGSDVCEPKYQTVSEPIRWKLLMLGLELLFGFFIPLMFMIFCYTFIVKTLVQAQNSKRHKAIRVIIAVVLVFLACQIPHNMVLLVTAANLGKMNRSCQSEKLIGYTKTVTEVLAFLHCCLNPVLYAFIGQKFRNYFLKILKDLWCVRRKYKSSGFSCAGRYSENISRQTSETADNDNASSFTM

Cytochrome P450 2D6 = Cytochrome P450 2D6 (Homo sapiens, UniProt P10635); test: Inhibition of liver CYP2D6; type: ADME, tissue-based
[30] = system: Human immunodeficiency virus; test: Antiviral activity against R5-tropic HIV Ba-L infected in human PBMC cells assessed as inhibition of viral replication; type: functional, organism-based; conditions: Human immunodeficiency virus 1, Ba-L
Cytochrome P450 3A4 = Cytochrome P450 3A4 (Homo sapiens, UniProt P08684); test: Inhibition of liver CYP3A4; type: ADME, tissue-based
[31] = molecular target: T5, C-C chemokine receptor type 4 (Homo sapiens, UniProt P51679); test: Binding affinity to human CCR4 receptor
T5 sequence (P51679 whole entry): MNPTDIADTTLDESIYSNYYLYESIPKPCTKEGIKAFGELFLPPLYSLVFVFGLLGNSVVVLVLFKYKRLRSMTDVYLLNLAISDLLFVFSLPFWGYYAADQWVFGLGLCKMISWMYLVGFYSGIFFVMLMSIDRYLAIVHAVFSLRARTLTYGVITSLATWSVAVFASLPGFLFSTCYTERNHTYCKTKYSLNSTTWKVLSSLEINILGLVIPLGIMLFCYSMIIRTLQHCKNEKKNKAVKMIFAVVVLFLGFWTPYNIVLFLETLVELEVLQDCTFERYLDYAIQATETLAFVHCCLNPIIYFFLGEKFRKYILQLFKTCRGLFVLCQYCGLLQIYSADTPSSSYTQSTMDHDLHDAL

Chain of C-C chemokine receptor type 5 (P51681 whole entry): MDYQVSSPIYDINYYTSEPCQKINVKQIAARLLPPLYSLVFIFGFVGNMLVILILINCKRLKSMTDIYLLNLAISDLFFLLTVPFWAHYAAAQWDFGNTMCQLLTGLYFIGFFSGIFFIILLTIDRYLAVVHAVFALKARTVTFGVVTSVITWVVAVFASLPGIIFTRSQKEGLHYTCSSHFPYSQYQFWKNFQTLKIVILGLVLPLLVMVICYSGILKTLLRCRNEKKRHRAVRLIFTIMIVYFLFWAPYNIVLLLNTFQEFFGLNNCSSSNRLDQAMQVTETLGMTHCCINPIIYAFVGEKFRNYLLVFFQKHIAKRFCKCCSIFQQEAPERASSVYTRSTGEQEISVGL
Chain of C-X-C chemokine receptor type 4 (P61073 whole entry): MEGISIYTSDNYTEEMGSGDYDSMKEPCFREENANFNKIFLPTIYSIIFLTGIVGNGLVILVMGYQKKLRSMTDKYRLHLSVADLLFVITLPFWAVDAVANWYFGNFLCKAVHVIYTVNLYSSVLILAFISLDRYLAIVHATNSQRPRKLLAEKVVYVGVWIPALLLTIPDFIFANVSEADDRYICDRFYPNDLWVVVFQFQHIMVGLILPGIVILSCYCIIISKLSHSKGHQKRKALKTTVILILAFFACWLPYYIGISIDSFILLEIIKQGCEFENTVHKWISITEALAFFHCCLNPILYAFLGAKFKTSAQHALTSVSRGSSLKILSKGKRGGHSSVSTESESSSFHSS
Chain of C-C chemokine receptor type 2 (P41597 whole entry): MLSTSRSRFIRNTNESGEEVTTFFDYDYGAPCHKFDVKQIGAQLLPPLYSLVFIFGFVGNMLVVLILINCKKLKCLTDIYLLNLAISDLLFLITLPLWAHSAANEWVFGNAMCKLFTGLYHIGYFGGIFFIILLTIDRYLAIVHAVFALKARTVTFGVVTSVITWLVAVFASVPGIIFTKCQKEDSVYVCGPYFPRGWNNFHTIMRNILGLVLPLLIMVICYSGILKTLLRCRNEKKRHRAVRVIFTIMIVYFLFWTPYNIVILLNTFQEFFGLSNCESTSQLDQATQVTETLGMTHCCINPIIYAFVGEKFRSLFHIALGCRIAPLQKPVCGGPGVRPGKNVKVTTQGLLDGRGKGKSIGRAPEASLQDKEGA
Chain of Voltage-gated inwardly rectifying potassium channel KCNH2 (Q12809 whole entry): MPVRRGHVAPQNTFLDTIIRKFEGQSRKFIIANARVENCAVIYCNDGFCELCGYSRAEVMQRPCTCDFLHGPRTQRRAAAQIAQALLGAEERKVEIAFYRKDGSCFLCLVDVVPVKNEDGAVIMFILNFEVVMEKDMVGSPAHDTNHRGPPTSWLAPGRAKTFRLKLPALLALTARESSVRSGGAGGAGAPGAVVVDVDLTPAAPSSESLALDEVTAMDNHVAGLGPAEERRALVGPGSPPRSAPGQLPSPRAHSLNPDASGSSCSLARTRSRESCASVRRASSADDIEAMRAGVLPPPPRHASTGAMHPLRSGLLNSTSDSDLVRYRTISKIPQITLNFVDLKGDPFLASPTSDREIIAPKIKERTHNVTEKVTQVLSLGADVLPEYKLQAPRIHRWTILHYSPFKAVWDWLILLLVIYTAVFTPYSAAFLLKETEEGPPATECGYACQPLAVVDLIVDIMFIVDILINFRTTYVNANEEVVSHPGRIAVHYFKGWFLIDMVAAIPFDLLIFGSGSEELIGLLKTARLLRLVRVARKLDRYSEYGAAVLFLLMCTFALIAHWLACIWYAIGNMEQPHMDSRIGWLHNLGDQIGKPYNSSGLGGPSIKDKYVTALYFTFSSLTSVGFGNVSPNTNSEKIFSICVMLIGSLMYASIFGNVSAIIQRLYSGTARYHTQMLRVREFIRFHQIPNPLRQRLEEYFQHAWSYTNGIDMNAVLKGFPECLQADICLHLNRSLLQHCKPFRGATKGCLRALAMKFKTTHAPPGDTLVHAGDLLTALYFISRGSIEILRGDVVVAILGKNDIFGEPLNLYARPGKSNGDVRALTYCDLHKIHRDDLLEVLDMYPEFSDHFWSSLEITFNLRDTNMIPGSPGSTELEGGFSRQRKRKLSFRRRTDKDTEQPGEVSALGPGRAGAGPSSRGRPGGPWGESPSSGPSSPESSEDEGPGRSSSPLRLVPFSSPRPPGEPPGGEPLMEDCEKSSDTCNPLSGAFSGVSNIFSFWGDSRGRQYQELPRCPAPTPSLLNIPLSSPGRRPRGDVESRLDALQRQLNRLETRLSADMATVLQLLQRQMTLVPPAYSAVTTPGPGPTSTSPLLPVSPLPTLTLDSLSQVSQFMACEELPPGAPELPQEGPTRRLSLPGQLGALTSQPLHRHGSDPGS
Chain of hERG (KCNH2) (Q12809 whole entry): as above
Chain of Cytochrome P450 3A4 (P08684 whole entry): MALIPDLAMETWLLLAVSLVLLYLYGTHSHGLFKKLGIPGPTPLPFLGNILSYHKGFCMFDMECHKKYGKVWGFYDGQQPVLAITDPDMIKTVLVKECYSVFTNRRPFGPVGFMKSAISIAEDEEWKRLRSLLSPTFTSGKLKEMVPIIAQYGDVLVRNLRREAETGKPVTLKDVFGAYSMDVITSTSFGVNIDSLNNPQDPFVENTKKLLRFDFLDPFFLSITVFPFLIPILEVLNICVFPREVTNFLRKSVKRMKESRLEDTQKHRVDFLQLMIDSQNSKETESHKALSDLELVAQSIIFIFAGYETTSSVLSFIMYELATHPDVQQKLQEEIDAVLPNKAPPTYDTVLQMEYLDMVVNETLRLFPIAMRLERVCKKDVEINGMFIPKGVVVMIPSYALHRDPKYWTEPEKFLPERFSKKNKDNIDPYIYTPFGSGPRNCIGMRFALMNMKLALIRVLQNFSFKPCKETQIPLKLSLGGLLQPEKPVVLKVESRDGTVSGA
Chain of Cytochrome P450 2C9 (P11712 whole entry): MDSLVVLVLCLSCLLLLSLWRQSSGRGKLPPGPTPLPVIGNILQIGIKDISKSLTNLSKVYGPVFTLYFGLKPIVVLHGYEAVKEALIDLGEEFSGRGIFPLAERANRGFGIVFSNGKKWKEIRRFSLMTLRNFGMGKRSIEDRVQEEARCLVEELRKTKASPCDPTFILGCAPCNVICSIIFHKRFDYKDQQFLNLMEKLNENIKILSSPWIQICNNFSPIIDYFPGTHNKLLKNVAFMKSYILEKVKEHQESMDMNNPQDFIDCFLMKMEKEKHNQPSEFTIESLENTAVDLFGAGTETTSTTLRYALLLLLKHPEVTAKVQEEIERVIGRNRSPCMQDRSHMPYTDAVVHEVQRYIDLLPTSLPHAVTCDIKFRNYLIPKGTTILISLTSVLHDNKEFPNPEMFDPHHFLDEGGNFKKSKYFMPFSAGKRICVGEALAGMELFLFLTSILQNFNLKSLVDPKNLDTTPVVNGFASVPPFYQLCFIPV
Chain of Cytochrome P450 2D6 (P10635 whole entry): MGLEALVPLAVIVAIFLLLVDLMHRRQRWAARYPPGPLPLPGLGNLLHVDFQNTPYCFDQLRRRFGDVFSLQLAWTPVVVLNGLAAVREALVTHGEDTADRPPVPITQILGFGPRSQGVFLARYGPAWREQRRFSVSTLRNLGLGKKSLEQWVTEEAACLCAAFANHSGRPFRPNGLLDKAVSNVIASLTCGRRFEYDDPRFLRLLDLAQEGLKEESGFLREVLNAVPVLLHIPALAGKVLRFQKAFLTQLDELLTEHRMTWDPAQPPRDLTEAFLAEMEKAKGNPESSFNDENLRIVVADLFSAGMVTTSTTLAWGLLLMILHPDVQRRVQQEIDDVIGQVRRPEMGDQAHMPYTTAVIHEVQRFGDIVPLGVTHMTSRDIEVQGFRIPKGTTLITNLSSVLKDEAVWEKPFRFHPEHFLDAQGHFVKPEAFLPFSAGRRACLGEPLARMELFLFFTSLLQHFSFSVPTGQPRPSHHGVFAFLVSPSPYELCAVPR

## CCCC[C@H]1CN(CC2CCOCC2)C(=O)OC12CCN(C1(C)CCN(C(=O)c3c(C)ncnc3C)CC1)CC2
[1]
  IC50: 11.9 µM
hERG (KCNH2)
  IC20: 2.9 µM
[2]
  fraction unbound: 0.13
[3]
  IC50: > 50 µM
[4]
  half-life: 2.9 h
Cytochrome P450 2C9
  Activity: Not Active
[5]
  Cmax: 42 ng/mL
[6]
  IC50: 0.025 µM
[7]
  IC50: 0.006 µM
[8]
  IC50: > 50 µM
[9]
  fraction unbound: 0.04
[10]
  IC50: > 50 µM
Canis familiaris
  clearance: 20 mL/min/kg
[11]
  microsomal CLint: 12 µL/min/mg
[12]
  Vd: 3.2 L/kg
[13]
  bioavailability: 85%
[14]
  Vd: 3.8 L/kg
[15]
  bioavailability: 10%
[16]
  AUC: 396 ng·h/mL
[17]
  AUC: 700 ng·h/mL
[18]
  Cmax: 225 ng/mL
[19]
  bioavailability: 42%
[20]
  clearance: 52 mL/min/kg
[21]
  half-life: 3.5 h
[22]
  Cmax: 13 ng/mL
[23]
  clearance: 19 mL/min/kg
[24]
  half-life: 1.4 h
[25]
  IC50: > 50 µM
[26]
  Vd: 3 L/kg
Cytochrome P450 1A2
  Activity: Not Active
Cytochrome P450 2C19
  Activity: Not Active
[27]
  fraction unbound: 0.32
[28]
  AUC: 54 ng·h/mL
[29]
  IC50: > 50 µM
Cytochrome P450 2D6
  Activity: Not Active
[30]
  IC50: 0.00018 µM
Cytochrome P450 3A4
  Activity: Not Active
[31]
  IC50: > 50 µM
